Reference: ChEMBL document CHEMBL5532711, “Peniapyrones A-I, Cytotoxic Tricyclic-Fused α-Pyrone Derivatives from an Endophytic Penicillium brefeldianum F4a” (J Nat Prod, 2024)

Experiments:
Format in all cases: functional, cell-based
SNU-449 = experiment: Cytotoxicity against human SNU-449 cells assessed as inhibition of cell growth
MCF7 = experiment: Cytotoxicity against human MCF7 cells assessed as inhibition of cell growth
ASPC1 = experiment: Cytotoxicity against human ASPC1 cells harboring KRAS G12D mutant assessed as inhibition of cell growth

| Structure (SMILES) | IC50 (SNU-449) [µM] | IC50 (MCF7) [µM] | IC50 (ASPC1) [µM] |
| --- | --- | --- | --- |
| Cc1cc2c(c(=O)o1)[C@@]1(C)C=CC(=O)[C@H]1[C@@H](OC[C@H]1C(=O)CC[C@@H]1C)O2 | 1.2 | 0.8 | 9.4 |
| Cc1cc2c(c(=O)o1)[C@]1(C)C=CC(=O)[C@@H]1[C@H](OC[C@H]1C(=O)CC[C@@H]1C)O2 | > 10 | > 10 | > 10 |
| CO[C@@H]1Oc2cc(C)oc(=O)c2[C@]2(C)C=CC(=O)[C@H]12 | > 10 | > 10 | > 10 |
| C=C1[C@@H](O)C[C@H]2Oc3cc(C)oc(=O)c3[C@@]12C | 2.7 | 0.2 | 1.7 |
| CCO[C@@H]1Oc2cc(C)oc(=O)c2[C@]2(C)C=CC(=O)[C@H]12 | 1.4 | 0.7 | 2.2 |
| Cc1cc2c(c(=O)o1)[C@@]1(C)C[C@H](O)C[C@H]1O2 | > 10 | 4.6 | 1.5 |
| Cc1cc2c(c(=O)o1)[C@]1(C)C=CC(=O)[C@@H]1[C@H](O)O2 | 5.9 | 5.3 | 1.7 |
| Cc1cc2c(c(=O)o1)[C@@]1(C)[C@H](CO)[C@@H](O)C[C@H]1O2 | 8.8 | 5.5 | > 10 |
| Cc1cc2c(c(=O)o1)[C@@]1(C)CC(=O)C[C@H]1O2 (racemic) | > 10 | 9.9 | 2.9 |
| Cc1nc(Nc2ncc(C(=O)Nc3c(C)cccc3Cl)s2)cc(N2CCN(CCO)CC2)n1 [DASATINIB ANHYDROUS] |  | > 10 | 3.3 |
| Nc1ccn([C@@H]2O[C@H](CO)[C@@H](O)C2(F)F)c(=O)n1 [GEMCITABINE] | > 10 |  | 0.5 |
